This note sets out measurements from publication PMC11170206, “A novel fatty acid mimetic with pan-PPAR partial agonist activity inhibits diet-induced obesity and metabolic dysfunction-associated steatotic liver disease” (Molecular Metabolism, 2024).

Common to all, as to assay type: cell-based
In one test the target is T1, PPARδ (Mus musculus, UniProt P35396).
T1 construct: gene Ppard; GAL4-mPPARδ
T1 sequence (P35396 210-440 limits assumed): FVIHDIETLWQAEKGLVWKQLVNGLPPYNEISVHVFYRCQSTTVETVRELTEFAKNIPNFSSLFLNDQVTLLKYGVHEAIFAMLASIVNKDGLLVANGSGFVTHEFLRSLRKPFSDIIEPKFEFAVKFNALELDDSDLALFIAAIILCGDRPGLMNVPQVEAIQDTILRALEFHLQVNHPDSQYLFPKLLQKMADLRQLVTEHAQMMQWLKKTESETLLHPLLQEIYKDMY
In words: GAL4/UAS-luciferase reporter assay in transfected HEK293 cells, dose-response (partial agonist). (In general: In a reporter assay the amount or activity of a reporter protein is the signal.)

The next test has as its target T2, PPARγ (Mus musculus, UniProt P37238).
T2 construct: gene Pparg; GAL4-mPPARγ
T2 sequence (P37238 1-505): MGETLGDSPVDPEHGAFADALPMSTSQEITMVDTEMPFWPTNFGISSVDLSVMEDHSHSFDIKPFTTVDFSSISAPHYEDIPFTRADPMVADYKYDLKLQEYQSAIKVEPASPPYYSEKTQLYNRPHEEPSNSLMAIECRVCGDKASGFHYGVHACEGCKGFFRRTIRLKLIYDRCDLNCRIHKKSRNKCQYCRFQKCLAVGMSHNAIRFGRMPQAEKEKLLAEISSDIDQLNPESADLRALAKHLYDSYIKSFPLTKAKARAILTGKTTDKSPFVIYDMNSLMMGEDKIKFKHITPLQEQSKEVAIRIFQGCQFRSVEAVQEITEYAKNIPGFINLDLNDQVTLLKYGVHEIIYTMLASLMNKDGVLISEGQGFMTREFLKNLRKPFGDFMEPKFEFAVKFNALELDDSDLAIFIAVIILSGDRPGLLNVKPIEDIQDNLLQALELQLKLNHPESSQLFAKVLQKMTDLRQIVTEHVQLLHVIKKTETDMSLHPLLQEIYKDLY
Described as above.

In test [1] the target is T3, PPARα (Mus musculus, UniProt P23204).
T3 construct: gene Ppara; GAL4-mPPARα
T3 sequence (P23204 1-468): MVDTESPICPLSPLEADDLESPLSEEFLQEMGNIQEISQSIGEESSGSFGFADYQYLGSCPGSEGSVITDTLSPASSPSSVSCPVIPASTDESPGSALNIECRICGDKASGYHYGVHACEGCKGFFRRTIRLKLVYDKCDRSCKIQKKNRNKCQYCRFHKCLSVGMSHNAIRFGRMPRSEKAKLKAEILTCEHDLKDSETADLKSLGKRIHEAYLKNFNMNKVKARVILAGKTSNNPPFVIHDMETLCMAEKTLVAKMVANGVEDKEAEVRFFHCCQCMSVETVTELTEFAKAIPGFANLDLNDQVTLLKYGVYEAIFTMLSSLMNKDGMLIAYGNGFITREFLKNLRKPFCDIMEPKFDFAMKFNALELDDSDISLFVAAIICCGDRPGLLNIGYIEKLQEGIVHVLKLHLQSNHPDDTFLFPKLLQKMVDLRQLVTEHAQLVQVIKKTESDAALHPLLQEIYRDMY
Described as above.

Test [2] has as its target T3, PPARα. In words: GAL4/UAS-luciferase reporter assay in transfected HEK293 cells, positive control agonist.

In general, EC50 refers to the concentration giving half of the maximal effect. Read a high EC50 as a need for much substance. Take `CCCCCCCCCCCCCCCc1cccc(OC(C)(C)C(=O)O)c1` [LDT409]: the EC50 was found to be 1000 nM at PPARδ, 100 nM at PPARγ and 100 nM at PPARα [1].
Take `Cc1cccc(Nc2cc(Cl)nc(SCC(=O)O)n2)c1C` [WY14643]: the “GAL4/UAS-luciferase reporter assay in transfected HEK293 cells, positive control” value at PPARα [2] is “full dose–response curve comparing LDT409 against positive controls for each mouse PPAR (WY, PPARα agonist;”.
